From PMC11453076, “Optimization, purification and characterization of laccase from a new endophytic Trichoderma harzianum AUMC14897 isolated from Opuntia ficus-indica and its applications in dye decolorization and wastewater treatment” (Microbial Cell Factories, 2024)

Test system: T1, laccase from T. harzianum AUMC14897
T1 construct: gene benzenediol:oxygen oxidoreductase; 72 kDa by GFC and SDS-PAGE; single zymogram band
Assay: ABTS oxidation at […] nm, Lineweaver-Burk plot
Assay type: biochemical, Trichoderma harzianum
Settings: ABTS 0.02-0.1 mM; pH and temperature of the Km assay not restated (general assay: 50 mM sodium acetate pH 5.4, 37 °C)

Question: Which Km does the source give for `CCn1c(=NN=c2sc3cc(S(=O)(=O)O)ccc3n2CC)sc2cc(S(=O)(=O)O)ccc21` [ABTS, 2,2'-Azino-bis(3-ethylbenzothiazoline-6-sulfonic acid)] here?
Answer: 100 µM
